{"source": "patent US20250250284A1", "about": "“MACROCYCLE COMPOUNDS USEFUL AS KRAS INHIBITORS” (Hoffmann-La Roche Inc., priority 2022, published 2025)", "key": {"[1]": {"target": "KRAS G12V binding to BRAF (Homo sapiens (Human), UniProt P01116+P62937, G12V)", "sequence (P01116-2 other isoform, or with tags, fused parts or gaps G12V)": "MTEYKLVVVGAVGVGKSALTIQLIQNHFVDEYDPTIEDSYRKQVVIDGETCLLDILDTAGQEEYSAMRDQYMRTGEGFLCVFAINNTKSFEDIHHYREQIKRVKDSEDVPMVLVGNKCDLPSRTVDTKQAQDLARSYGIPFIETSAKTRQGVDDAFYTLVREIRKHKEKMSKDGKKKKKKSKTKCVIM", "sequence (P62937 whole entry)": "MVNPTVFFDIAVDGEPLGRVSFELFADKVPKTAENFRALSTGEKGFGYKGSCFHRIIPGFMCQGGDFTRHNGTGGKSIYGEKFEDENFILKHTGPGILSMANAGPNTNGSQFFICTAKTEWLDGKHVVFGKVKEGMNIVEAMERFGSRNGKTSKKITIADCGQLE", "experiment": "KRAS-BRAF with CYPA (500 nM) interaction assay (TR-FRET), G12V", "settings": "GMPPNP loaded 6His-KRAS, GST-BRAF RBD, 3 hours", "experimental": "(§1) KRAS-BRAF with CYPA (500 nM) Interaction Assay\n(§2) In this example, TR-FRET was also used to measure the compound or compound-CYPA dependent disruption of the KRAS G12C-BRAF complex. This protocol was also used to measure disruption of KRAS G12D or KRAS G12V binding to BRAF by a compound of the invention, respectively. In assay buffer containing 25 mM HEPES PH=7.4 (4-(2-hydroxyethyl)-1-piperazineethanesulfonic acid, Thermo, 15630080), 0.002% Tween20, 0.1% BSA, 100 mM NaCl, 5 mM MgCl2, 10 μM GMPPNP (Guanosine 5′-[β,γ-imido]triphosphate trisodium salt hydrate, Sigma, G0635), tagless CYPA, GMPPNP loaded 6His-KRAS proteins, and GST-BRAF^RBD were mixed in a well of a 384-well assay plate at final concentrations of 50 nM, 6.25 nM and 1 nM, respectively. Compound was present in plate wells as a 16-point 3-fold dilution series starting at a final concentration of 10 μM and incubated for 3 hours. A mixture of MAb Anti-6His-XL665 (Cisbio, 61HISXLB) and Mab anti-GST-TB cryptate (Cisbio, 61GSTTLB) was then added at a final concentration of 6.67 nM and 0.21 nM, respectively, and the plate was incubated for an additional 1.5 hours. TR-FRET signal was read on a PHERstar FSX microplate reader (Ex320 nm, Em 665/615 nm). Compounds that facilitate disruption of the KRAS-BRAF complex were identified as those eliciting a decrease in the TR-FRET ratio relative to DMSO control wells."}, "[2]": {"system": "phosphorylation of ERK, KRAS G12C in NCI-H358 cells", "experiment": "pERK inhibition assay, KRAS G12C", "assay_type": "cell-based", "settings": "Homo sapiens, 4 hours of incubation", "experimental": "(§3) This assay is to measure the ability of test compounds in inhibiting the phosphorylation of ERK, the downstream signaling of KRAS G12C in NCI-H358 cells, KRAS G12D in AGS cells, and KRAS G12V in SW620. NCI-H358 (ATCC-CRL5807) cells, AGS (ATCC-CRL-1739) cells, SW620 (ATCC-CCL-227) cells were all grown and maintained using RPMI-1640 medium (Thermo Fisher Scientific) with 10% fetal bovine serum and 1% penicillin/streptomycin. On the day prior to compound addition, cells were plated in tissue culture-treated 96 well plates (Corning-3699) at a density of 30,000 cell/well, 20,000 cell/well, 30,000 cell/well for NCI-H358, AGS and SW620 respectively, and allowed for attachment overnight. Diluted compounds were then added in a final concentration of 0.5% DMSO. After 4 hours of incubation, the medium was removed, 100 μL of 4% formaldehyde was added, and the assay plates were incubated at room temperature for 20 minutes. The plates were then washed once with phosphate buffered saline (PBS), and permeabilized with 100 μL of chilled methanol for 10 minutes. Non-specific antibody binding to the plates was blocked using 50 μL 1×BSA blocking buffer (Thermo-37520, 10-fold dilution by Phosphate-Buffered Saline Tween (PBST) for at least 1 hour at room temperature.\n(§4) The amount of phosphor-ERK was determined using an antibody specific for phosphorylated form of ERK. Primary antibody (pERK, CST-4370, Cell Signaling Technology) was diluted 1:300 in blocking buffer, with 50 μL aliquoted to each well, and incubated overnight at 4° C. Cells was washed five times for 5 minutes with PBST. Secondary antibody (HRP-linked anti-rabbit IgG, CST-7074, Cell Signaling Technology) was diluted 1:1000 in blocking buffer, and 50 μL was added to each well and incubated 1-2 hrs at room temperature. Cells was washed 5 times for 5 minutes with PBST, 100 μL TMB ELISA substrate (abcam-ab171523) were added and gently shake for 20 minutes. 50 μL stop solution (abcam-ab171529) were added, and then read the signal (OD450) by EnVision.\n(§5) IC50 was determined by fitting a 4-parameter sigmoidal concentration response model."}, "[3]": {"target": "KRAS G12D binding to BRAF (Homo sapiens (Human), UniProt P01116+P62937, G12D)", "sequence (P01116-2 other isoform, or with tags, fused parts or gaps G12D)": "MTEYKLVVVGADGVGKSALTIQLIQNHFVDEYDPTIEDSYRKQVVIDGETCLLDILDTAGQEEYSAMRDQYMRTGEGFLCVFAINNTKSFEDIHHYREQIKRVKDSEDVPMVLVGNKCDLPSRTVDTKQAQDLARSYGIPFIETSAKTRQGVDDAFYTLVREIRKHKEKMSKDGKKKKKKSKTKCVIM", "sequence (P62937 whole entry)": "as the sequence (P62937 whole entry) above", "experiment": "KRAS-BRAF with CYPA (500 nM) interaction assay (TR-FRET), G12D", "settings": "GMPPNP loaded 6His-KRAS, GST-BRAF RBD, 3 hours", "experimental": "as §1, §2"}, "KRAS G12C-BRAF complex": {"target": "KRAS G12C-BRAF complex (Homo sapiens (Human), UniProt P01116+P62937, G12C)", "sequence (P01116-2 other isoform, or with tags, fused parts or gaps G12C)": "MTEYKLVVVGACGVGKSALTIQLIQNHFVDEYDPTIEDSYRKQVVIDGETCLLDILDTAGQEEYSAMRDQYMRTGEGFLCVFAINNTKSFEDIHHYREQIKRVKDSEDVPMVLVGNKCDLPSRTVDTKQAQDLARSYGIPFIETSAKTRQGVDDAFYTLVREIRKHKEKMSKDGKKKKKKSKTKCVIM", "sequence (P62937 whole entry)": "as the sequence (P62937 whole entry) above", "experiment": "KRAS-BRAF with CYPA (500 nM) interaction assay (TR-FRET), G12C", "assay_type": "binding", "settings": "GMPPNP loaded 6His-KRAS, GST-BRAF RBD, 3 hours", "experimental": "as §1, §2"}, "[4]": {"system": "phosphorylation of ERK, KRAS G12V in SW620", "experiment": "pERK inhibition assay, KRAS G12V", "assay_type": "cell-based", "settings": "Homo sapiens, SW-620; SW620 cells, 4 hours of incubation", "experimental": "as §3, §4, §5"}, "SW620 cells": {"system": "SW620 cells", "experiment": "Cell viability assay (Cell Counting Kit-8), KRAS G12V", "assay_type": "cell-based", "settings": "Homo sapiens, SW-620, 72 hrs incubation, CCK-8", "experimental": "(§6) The purpose of this cellular assay was to determine the effects of test compounds on the proliferation of human cancer cell lines NCI-H358 (ATCC-CRL5807) cells, AGS (ATCC-CRL-1739) cells, SW620 (ATCC-CCL-227) over a 3-day treatment period by quantifying the amount of NADPH present at endpoint using Cell Counting Kit-8.\n(§7) Cells were seeded at 5,000 cells/well (NCI-H358), 2,000 cells/well (AGS) 2,000 cells/well (SW620) in 96-well assay plates (Corning-3699) and incubated overnight. On the day of the assay, diluted compounds were then added in a final concentration of 0.5% DMSO. After 72 hrs incubation, a tenth of the volume of cell counting kit 8 (Dnjindo-CK04) was added into each well. Read the signal (OD450 minus OD650) using EnVision after 2 hrs incubation. IC50 was determined by fitting a 4-parameter sigmoidal concentration response model."}, "AGS cells": {"system": "AGS cells", "experiment": "Cell viability assay (Cell Counting Kit-8), KRAS G12D", "assay_type": "cell-based", "settings": "Homo sapiens, 72 hrs incubation, CCK-8", "experimental": "as §6, §7"}, "[5]": {"system": "phosphorylation of ERK, KRAS G12D in AGS cells", "experiment": "pERK inhibition assay, KRAS G12D", "assay_type": "cell-based", "settings": "Homo sapiens, 4 hours of incubation", "experimental": "as §3, §4, §5"}, "NCI-H358 cells": {"system": "NCI-H358 cells", "experiment": "Cell viability assay (Cell Counting Kit-8), KRAS G12C", "assay_type": "cell-based", "settings": "Homo sapiens, 72 hrs incubation, CCK-8", "experimental": "as §6, §7"}}}
{"smiles": "CO[C@@H](C)c1ncc(N2CCN(C)CC2)cc1C1=C2CC(C)(C)COC(=O)[C@@H]3CCCN(N3)C(=O)[C@@H](NC(=O)[C@H]3C[C@@H]3C)Cc3nc(cs3)-c3ccc(c2c3)C1", "note": "(single isomer, unassigned) [Example A122, reference compound]", "values": [{"measurement": "IC50", "setting": "[1]", "value": 0.025, "unit": "µM"}, {"measurement": "IC50", "setting": "[2]", "value": 0.002, "unit": "µM"}, {"measurement": "IC50", "setting": "[3]", "value": 0.124, "unit": "µM"}, {"measurement": "IC50", "setting": "KRAS G12C-BRAF complex", "value": 0.013, "unit": "µM"}, {"measurement": "IC50", "setting": "[4]", "value": "< 0.001", "unit": "µM"}, {"measurement": "IC50", "setting": "SW620 cells", "value": "< 0.001", "unit": "µM"}, {"measurement": "IC50", "setting": "AGS cells", "value": 0.001, "unit": "µM"}, {"measurement": "IC50", "setting": "[5]", "value": 0.001, "unit": "µM"}, {"measurement": "IC50", "setting": "NCI-H358 cells", "value": "< 0.001", "unit": "µM"}]}
